In PubChem BioAssay AID212 (DTP/NCI, 2004):
Several values for one entry are separate records, joined by “and”; a condition that tells them apart may be missing. Identical values can stand only once. Results filed as inconclusive are left out.

Test system: BDF1 mice, colon carcinoma 38 sc, T/C %
Experiment: NCI In Vivo Anticancer Drug Screen. Data for tumor model Colon Carcinoma 38 (subcutaneous) in B6D2F1 (BDF1) mice
How it was run: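 T/C readout: treated group (T) measurement over vehicle control group (C) measurement. Endpoint is survival or tumor size in mice bearing a transplanted tumor.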

[1] = endpoint: median tumor weight (est.), dose: 50.0 mg/kg/injection, schedule: Q07DX002 (ip), vehicle: Klucel (hydroxypropylcellulose) (HPC), higher = larger tumour
[2] = endpoint: median tumor weight (est.), dose: 12.5 mg/kg/injection, schedule: Q07DX002 (ip), vehicle: saline, higher = larger tumour
[3] = endpoint: median tumor weight (est.), dose: 25.0 mg/kg/injection, schedule: Q07DX002 (ip), vehicle: saline, higher = larger tumour
[4] = endpoint: median tumor weight (est.), dose: 50.0 mg/kg/injection, schedule: Q07DX002 (ip), vehicle: saline, higher = larger tumour
[5] = endpoint: median tumor weight (est.), dose: 100.0 mg/kg/injection, schedule: Q07DX002 (ip), vehicle: saline, higher = larger tumour
[6] = endpoint: median tumor weight (est.), dose: 12.5 mg/kg/injection, schedule: Q07DX002 (ip), vehicle: saline with Tween-80, higher = larger tumour
[7] = endpoint: median tumor weight (est.), dose: 200.0 mg/kg/injection, schedule: Q07DX002 (ip), vehicle: saline with Tween-80, higher = larger tumour
[8] = endpoint: median tumor weight (est.), dose: 400.0 mg/kg/injection, schedule: Q07DX002 (ip), vehicle: saline with Tween-80, higher = larger tumour
[9] = endpoint: median tumor weight (est.), dose: 400.0 mg/kg/injection, schedule: Q07DX002 (ip), vehicle: saline, higher = larger tumour
[10] = endpoint: median tumor weight (est.), dose: 200.0 mg/kg/injection, schedule: Q07DX002 (ip), vehicle: Klucel (hydroxypropylcellulose) (HPC), higher = larger tumour
[11] = endpoint: median tumor weight (est.), dose: 400.0 mg/kg/injection, schedule: Q07DX002 (ip), vehicle: Klucel (hydroxypropylcellulose) (HPC), higher = larger tumour
[12] = endpoint: median tumor weight (est.), dose: 50.0 mg/kg/injection, schedule: Q07DX002 (ip), vehicle: saline with Tween-80, higher = larger tumour
[13] = endpoint: median tumor weight (est.), dose: 100.0 mg/kg/injection, schedule: Q07DX002 (ip), vehicle: saline with Tween-80, higher = larger tumour
[14] = endpoint: median tumor weight (est.), dose: 25.0 mg/kg/injection, schedule: Q07DX002 (ip), vehicle: saline with Tween-80, higher = larger tumour

C/C(=N\N=C(/[Se])N1CC2CCC(CC2)C1)c1ccccn1
T/C (endpoint: median tumor weight (est.), dose: 3.0 mg/kg/injection, schedule: Q07DX002 (ip), vehicle: Klucel (hydroxypropylcellulose) (HPC), higher = larger tumour): 111 % of control
T/C (endpoint: median tumor weight (est.), dose: 6.0 mg/kg/injection, schedule: Q07DX002 (ip), vehicle: Klucel (hydroxypropylcellulose) (HPC), higher = larger tumour): 67 % of control
T/C (endpoint: median tumor weight (est.), dose: 12.0 mg/kg/injection, schedule: Q07DX002 (ip), vehicle: Klucel (hydroxypropylcellulose) (HPC), higher = larger tumour): 91 % of control
T/C (endpoint: median tumor weight (est.), dose: 25.0 mg/kg/injection, schedule: Q07DX002 (ip), vehicle: Klucel (hydroxypropylcellulose) (HPC), higher = larger tumour): 106 % of control
T/C [1]: 45 % of control

OCCN1CCN(CC/C=C2/c3ccccc3Sc3ccc(Cl)cc32)CC1
T/C (endpoint: median tumor weight (est.), dose: 3.12 mg/kg/injection, schedule: Q07DX002 (ip), vehicle: saline, higher = larger tumour): 83 % of control
T/C (endpoint: median tumor weight (est.), dose: 6.25 mg/kg/injection, schedule: Q07DX002 (ip), vehicle: saline, higher = larger tumour): 39 % of control
T/C [2]: 112 % of control
T/C [3]: 67 % of control
T/C [4]: 110 % of control
T/C [5]: 99 % of control

C(COCCOCC1CO1)OCCOCC1CO1 (centres undefined)
T/C [6]: 88 % of control
T/C [2]: 102 % of control
T/C [4]: 158 % of control
T/C [5]: 84 % of control
T/C [7]: 113 % of control
T/C [8]: 99 % of control
T/C [9]: 68 % of control

NC1=NC(=O)N2CC12 (centres undefined)
T/C [3]: 81 % of control
T/C [4]: 82 % of control and 83 % of control
T/C [5]: 81 % of control and 104 % of control
T/C (endpoint: median tumor weight (est.), dose: 200.0 mg/kg/injection, schedule: Q07DX002 (ip), vehicle: saline, higher = larger tumour): 66 % of control and 70 % of control
T/C [9]: 79 % of control

COC1=CC(=O)N(C(=O)C2CSC(C(CO)NC(=O)c3csc(/C=N/O)n3)=N2)C1 (centres undefined)
T/C [1]: 114 % of control
T/C (endpoint: median tumor weight (est.), dose: 100.0 mg/kg/injection, schedule: Q07DX002 (ip), vehicle: Klucel (hydroxypropylcellulose) (HPC), higher = larger tumour): 110 % of control
T/C [10]: 150 % of control
T/C [11]: 88 % of control

Cc1ccc(NCC2(/N=C/c3ccccc3)OC(CO)C(O)C2O)cc1 (centres undefined)
T/C (endpoint: median tumor weight (est.), dose: 12.5 mg/kg/injection, schedule: Q07DX003 (ip), vehicle: Klucel (hydroxypropylcellulose) (HPC), higher = larger tumour): 110 % of control
T/C (endpoint: median tumor weight (est.), dose: 25.0 mg/kg/injection, schedule: Q07DX003 (ip), vehicle: Klucel (hydroxypropylcellulose) (HPC), higher = larger tumour): 69 % of control
T/C (endpoint: median tumor weight (est.), dose: 50.0 mg/kg/injection, schedule: Q07DX003 (ip), vehicle: Klucel (hydroxypropylcellulose) (HPC), higher = larger tumour): 117 % of control
T/C (endpoint: median tumor weight (est.), dose: 100.0 mg/kg/injection, schedule: Q07DX003 (ip), vehicle: Klucel (hydroxypropylcellulose) (HPC), higher = larger tumour): 106 % of control
T/C (endpoint: median tumor weight (est.), dose: 200.0 mg/kg/injection, schedule: Q07DX003 (ip), vehicle: Klucel (hydroxypropylcellulose) (HPC), higher = larger tumour): 59 % of control

Cc1cc2c(C(C)C)c(O)c(O)c(C=O)c2c(O)c1-c1c(C)cc2c(C(C)C)c(O)c(O)c(C=O)c2c1O
T/C (endpoint: median tumor weight (est.), dose: 1.5 mg/kg/injection, schedule: Q07DX002 (ip), vehicle: saline with Tween-80, higher = larger tumour): 117 % of control
T/C (endpoint: median tumor weight (est.), dose: 3.0 mg/kg/injection, schedule: Q07DX002 (ip), vehicle: saline with Tween-80, higher = larger tumour): 97 % of control
T/C (endpoint: median tumor weight (est.), dose: 6.0 mg/kg/injection, schedule: Q07DX002 (ip), vehicle: saline with Tween-80, higher = larger tumour): 107 % of control
T/C (endpoint: median tumor weight (est.), dose: 12.0 mg/kg/injection, schedule: Q07DX002 (ip), vehicle: saline with Tween-80, higher = larger tumour): 53 % of control
T/C (endpoint: median tumor weight (est.), dose: 24.0 mg/kg/injection, schedule: Q07DX002 (ip), vehicle: saline with Tween-80, higher = larger tumour): 96 % of control

NC(Cc1ccc(N(CCCl)Cc2ccccc2)cc1)C(=O)O (centres undefined)
T/C (endpoint: median tumor weight (est.), dose: 3.12 mg/kg/injection, schedule: Q07DX002 (ip), vehicle: distilled water + Tween-80, higher = larger tumour): 69 % of control and 90 % of control
T/C (endpoint: median tumor weight (est.), dose: 6.25 mg/kg/injection, schedule: Q07DX002 (ip), vehicle: distilled water + Tween-80, higher = larger tumour): 108 % of control
T/C (endpoint: median tumor weight (est.), dose: 12.5 mg/kg/injection, schedule: Q07DX002 (ip), vehicle: distilled water + Tween-80, higher = larger tumour): 51 % of control and 70 % of control
T/C (endpoint: median tumor weight (est.), dose: 25.0 mg/kg/injection, schedule: Q07DX002 (ip), vehicle: distilled water + Tween-80, higher = larger tumour): 109 % of control and 108 % of control
T/C (endpoint: median tumor weight (est.), dose: 50.0 mg/kg/injection, schedule: Q07DX002 (ip), vehicle: distilled water + Tween-80, higher = larger tumour): 72 % of control and 92 % of control

O=C/C(Cl)=C(/Cl)C(=O)O
T/C (endpoint: median tumor weight (est.), dose: 5.0 mg/kg/injection, schedule: Q07DX002 (ip), vehicle: saline with Tween-80, higher = larger tumour): 63 % of control
T/C (endpoint: median tumor weight (est.), dose: 10.0 mg/kg/injection, schedule: Q07DX002 (ip), vehicle: saline with Tween-80, higher = larger tumour): 113 % of control and 92 % of control

Nc1ccc(C(=O)O)c(O)c1
T/C (endpoint: median tumor weight (est.), dose: 42.0 mg/kg/injection, schedule: Q07DX002 (ip), vehicle: saline with Tween-80, higher = larger tumour): 120 % of control
T/C (endpoint: median tumor weight (est.), dose: 84.0 mg/kg/injection, schedule: Q07DX002 (ip), vehicle: saline with Tween-80, higher = larger tumour): 89 % of control
T/C (endpoint: median tumor weight (est.), dose: 168.0 mg/kg/injection, schedule: Q07DX002 (ip), vehicle: saline with Tween-80, higher = larger tumour): 93 % of control
T/C (endpoint: median tumor weight (est.), dose: 337.0 mg/kg/injection, schedule: Q07DX002 (ip), vehicle: saline with Tween-80, higher = larger tumour): 80 % of control
T/C (endpoint: median tumor weight (est.), dose: 675.0 mg/kg/injection, schedule: Q07DX002 (ip), vehicle: saline with Tween-80, higher = larger tumour): 111 % of control

COC1=CC(=O)C(OC)=C(OC)C1=O
T/C (endpoint: median tumor weight (est.), dose: 6.25 mg/kg/injection, schedule: Q07DX002 (ip), vehicle: saline with Tween-80, higher = larger tumour): 115 % of control and 92 % of control
T/C [6]: 160 % of control and 185 % of control
T/C [12]: 62 % of control and 65 % of control
T/C [13]: 152 % of control
T/C [7]: 189 % of control

O=c1[nH]cnc2c1ncn2C1OC(CO)C(O)C1O (centres undefined)
T/C (endpoint: median survival time, dose: 250.0 mg/kg/injection, schedule: Q04DX004 (ip), vehicle: saline with Tween-80, higher = longer survival): 108 % of control
T/C (endpoint: median survival time, dose: 250.0 mg/kg/injection, schedule: Q04DX004 (ip), vehicle: saline, higher = longer survival): 107 % of control
T/C (endpoint: median survival time, dose: 500.0 mg/kg/injection, schedule: Q04DX004 (ip), vehicle: saline with Tween-80, higher = longer survival): 121 % of control
T/C (endpoint: median survival time, dose: 500.0 mg/kg/injection, schedule: Q04DX004 (ip), vehicle: saline, higher = longer survival): 120 % of control
T/C (endpoint: median survival time, dose: 1000.0 mg/kg/injection, schedule: Q04DX004 (ip), vehicle: saline with Tween-80, higher = longer survival): 60 % of control
T/C (endpoint: median survival time, dose: 1000.0 mg/kg/injection, schedule: Q04DX004 (ip), vehicle: saline, higher = longer survival): 58 % of control

CCOC(=O)c1[nH]c2cccc3c2c1CC(Br)C3=O (centres undefined)
T/C [14]: 120 % of control
T/C [12]: 92 % of control
T/C [13]: 90 % of control
T/C [7]: 78 % of control

CN(C)N=Nc1cccc(C(N)=O)c1
T/C (endpoint: median tumor weight (est.), dose: 10.0 mg/kg/injection, schedule: Q07DX002 (ip), vehicle: Klucel (hydroxypropylcellulose) (HPC), higher = larger tumour): 86 % of control
T/C (endpoint: median tumor weight (est.), dose: 20.0 mg/kg/injection, schedule: Q07DX002 (ip), vehicle: Klucel (hydroxypropylcellulose) (HPC), higher = larger tumour): 86 % of control
T/C (endpoint: median tumor weight (est.), dose: 20.0 mg/kg/injection, schedule: Q07DX002 (ip), vehicle: saline, higher = larger tumour): 97 % of control
T/C (endpoint: median tumor weight (est.), dose: 40.0 mg/kg/injection, schedule: Q07DX002 (ip), vehicle: Klucel (hydroxypropylcellulose) (HPC), higher = larger tumour): 44 % of control
T/C (endpoint: median tumor weight (est.), dose: 40.0 mg/kg/injection, schedule: Q07DX002 (ip), vehicle: saline, higher = larger tumour): 114 % of control and 104 % of control
T/C (endpoint: median tumor weight (est.), dose: 80.0 mg/kg/injection, schedule: Q07DX002 (ip), vehicle: Klucel (hydroxypropylcellulose) (HPC), higher = larger tumour): 18 % of control
T/C (endpoint: median tumor weight (est.), dose: 160.0 mg/kg/injection, schedule: Q07DX002 (ip), vehicle: saline, higher = larger tumour): 27 % of control and 29 % of control

CC1(C)OC1CS(=O)c1ccccc1 (centres undefined)
T/C [14]: 110 % of control
T/C [12]: 105 % of control
T/C [13]: 92 % of control
T/C [7]: 86 % of control
T/C [8]: 105 % of control
T/C (endpoint: median tumor weight (est.), dose: 800.0 mg/kg/injection, schedule: Q07DX002 (ip), vehicle: saline with Tween-80, higher = larger tumour): 76 % of control

S=C(Nc1ccc(Cl)c(Cl)c1)N1c2ccccc2-n2cccc2C1c1cccnc1 (centres undefined)
T/C [1]: 83 % of control
T/C [10]: 113 % of control and 95 % of control
T/C [11]: 101 % of control

Nc1ccc(S(=O)(=O)Nc2cnc3c(Cl)cccc3n2)cc1
T/C (endpoint: median tumor weight (est.), dose: 250.0 mg/kg/injection, schedule: Q07DX002 (ip), vehicle: DMSO, higher = larger tumour): 82 % of control

CC(=O)C1(O)Cc2c(O)c3c(c(O)c2C(OC2CC(N)C(O)C(C)O2)C1)C(=O)c1ccccc1C3=O (centres undefined)
T/C (endpoint: median survival time, dose: 1.4 mg/kg/injection, schedule: Q07DX002 (iv), vehicle: saline, higher = longer survival): 118 % of control
T/C (endpoint: median tumor weight (est.), dose: 0.37 mg/kg/injection, schedule: Q07DX002 (ip), vehicle: saline, higher = larger tumour): 66 % of control
T/C (endpoint: median tumor weight (est.), dose: 0.75 mg/kg/injection, schedule: Q07DX002 (ip), vehicle: saline, higher = larger tumour): 67 % of control
